Source: paper PMC5901961 (Nature, 2017)

What was measured:
Assay in all cases: inside-out patch clamp, HEK293, macroscopic current at +[…] mV, Hill fit
Format in all cases: cell-based
mouse TRPM4 [1] = target: mouse TRPM4 (Mus musculus, UniProt Q7TN37, Y228A)
mouse TRPM4 [2] = target: mouse TRPM4 (Mus musculus, UniProt Q7TN37, H160A)
mouse TRPM4 [3] = target: mouse TRPM4 (Mus musculus, UniProt Q7TN37, W214A)
mouse TRPM4 [4] = target: mouse TRPM4 (Mus musculus, UniProt Q7TN37)
Chain of mouse TRPM4 (Mus musculus, UniProt Q7TN37) (Q7TN37 whole entry): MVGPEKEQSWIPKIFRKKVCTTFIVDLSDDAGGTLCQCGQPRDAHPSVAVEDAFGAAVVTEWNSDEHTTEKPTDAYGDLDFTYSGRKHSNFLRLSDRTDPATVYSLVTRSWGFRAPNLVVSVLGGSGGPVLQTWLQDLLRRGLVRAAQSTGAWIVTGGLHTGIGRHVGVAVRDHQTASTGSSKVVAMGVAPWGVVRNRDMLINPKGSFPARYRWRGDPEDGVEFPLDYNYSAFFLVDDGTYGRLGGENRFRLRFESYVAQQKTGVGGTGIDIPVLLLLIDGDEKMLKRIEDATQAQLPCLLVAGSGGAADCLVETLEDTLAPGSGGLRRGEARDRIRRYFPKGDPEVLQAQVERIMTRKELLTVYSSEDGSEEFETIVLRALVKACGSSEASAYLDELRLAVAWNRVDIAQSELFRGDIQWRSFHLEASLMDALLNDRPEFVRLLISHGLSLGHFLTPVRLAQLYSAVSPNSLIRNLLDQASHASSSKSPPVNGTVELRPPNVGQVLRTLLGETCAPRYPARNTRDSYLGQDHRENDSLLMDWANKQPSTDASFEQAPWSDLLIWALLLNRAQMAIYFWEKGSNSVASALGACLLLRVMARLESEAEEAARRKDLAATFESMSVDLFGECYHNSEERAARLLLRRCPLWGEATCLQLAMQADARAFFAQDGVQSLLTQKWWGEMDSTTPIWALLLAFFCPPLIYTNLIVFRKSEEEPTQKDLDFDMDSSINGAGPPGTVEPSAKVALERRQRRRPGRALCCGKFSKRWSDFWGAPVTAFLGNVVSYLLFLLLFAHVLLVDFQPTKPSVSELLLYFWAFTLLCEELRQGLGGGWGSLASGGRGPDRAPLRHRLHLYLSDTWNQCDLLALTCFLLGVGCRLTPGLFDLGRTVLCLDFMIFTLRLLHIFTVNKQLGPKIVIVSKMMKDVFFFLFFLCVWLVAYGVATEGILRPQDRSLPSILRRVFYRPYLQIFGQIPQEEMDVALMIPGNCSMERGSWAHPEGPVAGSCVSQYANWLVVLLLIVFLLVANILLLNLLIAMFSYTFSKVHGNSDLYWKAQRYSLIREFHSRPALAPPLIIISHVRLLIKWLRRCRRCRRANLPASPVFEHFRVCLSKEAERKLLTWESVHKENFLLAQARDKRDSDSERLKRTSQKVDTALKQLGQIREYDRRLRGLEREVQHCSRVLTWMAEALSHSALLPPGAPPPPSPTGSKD

Chain of mouse TRPM4 (Mus musculus, UniProt Q7TN37, H160A) (Q7TN37 whole entry H160A): as the sequence (Q7TN37 whole entry) above, with H160A counted along it
Chain of mouse TRPM4 (Mus musculus, UniProt Q7TN37, W214A) (Q7TN37 whole entry W214A): as the sequence (Q7TN37 whole entry) above, with W214A counted along it
Chain of mouse TRPM4 (Mus musculus, UniProt Q7TN37, Y228A) (Q7TN37 whole entry Y228A): as the sequence (Q7TN37 whole entry) above, with Y228A counted along it

IC50 (mouse TRPM4 [1]): 14.2 ± 0.7 µM | IC50 (mouse TRPM4 [2]): > 160 µM | IC50 (mouse TRPM4 [3]): 6.5 ± 0.8 µM | IC50 (mouse TRPM4 [4]): 2.3 ± 0.5 µM
Compound: Nc1ncnc2c1ncn2[C@@H]1O[C@H](COP(=O)(O)OP(=O)(O)OP(=O)(O)O)[C@@H](O)[C@H]1O [ATP]
